Like-named read-outs stand apart in the source and are kept apart here.
Legend:
SUM149 [1] = test: CellTiter-Glo cell viability/proliferation assay, SUM149; assay type: cell-based, Human; details: for TI (therapeutic index) SUM149: EC50 BJ fibroblasts / EC50 SUM149; for IC50: Homo sapiens, SUM149, 72 h incubation, CellTiter-Glo, mean ± SD, read-out: Cytotoxicity IC50, SUM149
Method: (§1) The compounds were systematically assessed through multiple biological testing platforms to establish their relative effectiveness and explore potential correlations between chemical structure and biological function. Firstly, their ability to inhibit the proliferation of three specific breast cancer linages (SUM149, MDA-MB231, MCF07) was evaluated in vitro by using the established CellTiter-Glo® [18, 19] cellular proliferation assay.
(§2) Human cell lines were incubated at 37 °C in a 5% CO2 atmosphere and maintained under sterile conditions. Cells were tested for Mycoplasma (Lonza, Alpharetta, GA, USA) using the manufacturer’s conditions prior to experiments. Cell lines were purchased from American Type Culture Collection (ATCC, Manassas, VA, USA), and SUM149 was obtained from Asterand (Detroit, MI, USA) and cultured without antibiotics unless stated. Cells were cultured in Eagle’s Minimum Essential Medium (EMEM), DMEM, or F12 from ATCC supplemented with 10% fetal bovine serum (FBS, Hyclone, Logan, UT, USA) and 1% GlutaMAX. Human BJ fibroblast cells (ATCC, CRL-2522) were supplemented with 10% fetal bovine serum (FBS, Hyclone, Logan, UT, USA) and 1% GlutaMAX. BJ cells were cultured in EMEM media, and breast cancer cells (MDA-MB-231, MCF07) were cultured in DMEM. SUM149 was cultured in Ham’s F12 supplemented with 1% GlutaMAX,1% Pen/Step, 2 μM cortisol, and 1 ug/mL insulin. Cells were grown to 80% confluence densities as recommended by ATCC.
(§3) Cytotoxicity evaluation was performed using the CellTiter-Glo Luminescent Cell Viability Assay kit (G7570, Promega, Madison, WI, USA), according to the manufacturer’s instructions. Briefly, the cell concentrations used were experimentally determined to ensure logarithmic growth during the 72 h duration of the experiment and avoid adverse effects on cell growth by DMSO exposure. To proceed, […] cells/well were seeded in 96-well white flat-bottomed plates (#3610 Corning, Corning, NY, USA) in […]. The plates were incubated at 37 °C in 5% CO2 for 24 h before drugging. Test compounds (10 mM in DMSO) in eight 2-fold serial dilutions were dispensed to assay plates. The final concentration of DMSO was 0.3% (v/v) in each well. The positive controls included staurosporine (10 μM) and/or gambogic acid (10 μM). The plates were incubated for 72 h at 37 °C in 5% CO2, then quenched with CellTiter-Glo® (Promega, Madison, WI, USA, 50 uL/well), centrifuged at 1000 rpm for 1 min, and incubated at RT for 20 min. Luminescence was recorded with a plate reader (CLARIOstar Plus, BMG LabTech, Ortenberg, Germany). The mean luminescence of each experimental treatment group was normalized as a percentage of the mean intensity of untreated controls. EC50 values were calculated from dose-response curve-fitting via non-linear regression using GraphPad Prism 9.0 (GraphPad Software, San Diego, CA, USA). A therapeutic index (TI) between normal and tumor cell lines can be determined (EC50 non-neoplastic cell line BJ)/(EC50 cancer cell line).

MDA-MB231 [2] = test: CellTiter-Glo cell viability/proliferation assay, MDA-MB231; assay type: cell-based, Human; details: for TI (therapeutic index) MDA-MB231: EC50 BJ fibroblasts / EC50 MDA-MB231; for IC50: Homo sapiens, MDA-MB-231, 72 h incubation, CellTiter-Glo, mean ± SD, read-out: Cytotoxicity IC50, MDA-MB231
Method: as §1, §2, §3

[3] = CellTiter-Glo cell viability assay, non-neoplastic BJ fibroblasts; assay type: cell-based; details: BJ fibroblast cells (non-neoplastic, ATCC CRL-2522), non-neoplastic human BJ fibroblasts, mean ± SD, read-out: Cytotoxicity IC50, BJ
Method: as §2, §3

MCF07 [4] = test: CellTiter-Glo cell viability/proliferation assay, MCF07; assay type: cell-based, Human; details: for TI (therapeutic index) MCF07: EC50 BJ fibroblasts / EC50 MCF07; for IC50: Homo sapiens, 72 h incubation, CellTiter-Glo, mean ± SD, read-out: Cytotoxicity IC50, MCF07
Method: as §1, §2, §3

[5] = test system: several breast cancer cell lines; design: method as in PMID 36831660; details: cited from earlier work; for therapeutic index range: range over the named compounds and cell lines (Table 1)
MCF07 [6] = details: cited from earlier work; for TI (therapeutic index) MCF07: EC50 BJ fibroblasts / EC50 MCF07
SUM149 cells = test: Colony formation (clonogenic) assay, SUM149; assay type: cell-based, Human; details: 10 μM
Method: Further evaluation of various promising compounds using breast cancer cells included analysis of colony-forming inhibition capabilities and investigations into their specific mechanistic pathways of action. Thus, the anchorage-dependent colony formation assay, also known as the clonogenic assay, was conducted. This method in cancer research evaluates the ability of single cells to grow into colonies when attached to a surface and can measure a cell’s ability to undergo “unlimited” division and form a colony (usually defined as ≥50 cells).
The clonogenic assay offers comprehensive insights into the compound’s overall efficacy and is regarded as the definitive method for assessing post-treatment reproductive cell death (both cytotoxic and cytostatic effects). The extended duration of the experiment simultaneously provides valuable data on the compounds’ stability over time, which are not detected in short-term viability assays. […] In the MDA-MB231 cellular model (Figure 3), the evaluated compounds successfully eliminated the cells’ capacity to establish colonies (for images, see Figures S3 and S4).
MDA-MB-231 (0.8 × 10^6 cells/well) and SUM-149 cells (1.5 × 10^6 cells/well) were plated on a 6-well plate. Two days later, cell media was changed to 5% FBS, and cells were incubated at 37 °C in a 5% CO2 atmosphere for 1 h before the vehicle (0.1% DMSO) or compound (5–10μM) was added. After 72 h of treatment, cells were trypsinized and reseeded at 800 cells/mL (MDA-MB231) and 1200 cells/mL (SUM149) per well in 6-well plates. After 10 days of culture, the media was removed from the wells and washed once with cold PBS. The colonies were stained with 5 mL of 1% Crystal Violet for 30 min. The dishes were fixed by methanol, rinsed with water three times, and air-dried, and the colonies were counted using ImageJ version 1.5.4 (NIH, Bethesda, MD, USA).

SUM149 [7] = details: cited from earlier work; for TI (therapeutic index) SUM149: EC50 BJ fibroblasts / EC50 SUM149
MDA-MB231 [8] = details: cited from earlier work; for TI (therapeutic index) MDA-MB231: EC50 BJ fibroblasts / EC50 MDA-MB231
human BJ fibroblasts = details: cited from earlier work
[9] = test system: MDA-MB231 breast cancer cells; test: Cell morphology by brightfield microscopy; assay type: cell-based, Human; details: 24 h treatment, brightfield 10×; 1 and 6 at 5 μM, 10 at 10 μM
Excerpt: Brightfield microscopy images of MDA-MB231 breast cancer cells are indicated in Figure 6 to highlight the morphological changes that occur upon treatment with compounds 1, 6, and 10 as representative compounds. […] The precise mechanism of cell death for other compounds remained unclear.
Representative images were collected using 10× objective with a Leica DMi1 Microscope (Leica microsystems, Wetzlar, Germany). MDA-MB231 cells were imaged with a vehicle as the negative control, staurosporine as the positive control (2 μM), or compounds with results shown in representative images for 24 h.

[10] = read-out: Cytotoxicity IC50, MCF07, 72 h incubation, CellTiter-Glo, mean ± SD
[11] = read-out: Cytotoxicity IC50, SUM149, 72 h incubation, CellTiter-Glo, mean ± SD
[12] = read-out: Cytotoxicity IC50, MDA-MB231, 72 h incubation, CellTiter-Glo, mean ± SD
[13] = read-out: Cytotoxicity IC50, BJ, non-neoplastic human BJ fibroblasts, 72 h, CellTiter-Glo, mean ± SD

SMILES	TI (therapeutic index) SUM149 (SUM149 [1])	IC50 (SUM149 [1]) [µM]	TI (therapeutic index) MDA-MB231 (MDA-MB231 [2])	IC50 (MDA-MB231 [2]) [µM]	IC50 at 72 h [3] [µM]	TI (therapeutic index) MCF07 (MCF07 [4])	IC50 (MCF07 [4]) [µM]	therapeutic index range [5]	TI (therapeutic index) MCF07 (MCF07 [6])	TI (therapeutic index) SUM149 (SUM149 [7])	TI (therapeutic index) MDA-MB231 (MDA-MB231 [8])	IC50 (MCF07 [6]) [µM]	IC50 (SUM149 [7]) [µM]	IC50 (MDA-MB231 [8]) [µM]	IC50 (human BJ fibroblasts) [µM]	other results
COc1cccc2c1C(=O)N(C[C@]1(C)CCC[C@]3(C)c4cc(O)c(C(C)C)cc4CC[C@@H]13)C2=O [Compound 8, 12-Hydroxy-N,N-(3-methoxyphthaloyl)dehydroabietylamine]	12	5.3 ± 0.1	≈1	54.6 ± 5	61.2 ± 5.4	6	11 ± 1.4									
COC(=O)[C@]1(C)CCC[C@]2(C)C3=C(C=C(C(C)C)C(=O)C3=O)CC[C@@H]12 [Compound 11]								6–43	7	43	15					IC50 (MCF07 [6]; [10]): 8.3 ± 0.9 µM; Colony-forming ability of SUM149 cells (SUM149 cells): notable exceptions; Effectiveness against SUM149 cell line (in words) (SUM149 [7]; conclusions, Table 1 values of these compounds ref 13): notable effectiveness; IC50 (SUM149 [7]; [11]): 1.3 ± 0.6 µM; IC50 (MDA-MB231 [8]; [12]): 3.9 ± 0.8 µM; IC50 (human BJ fibroblasts; [13]): 56.5 ± 6.1 µM
CC(C)c1cc2c(cc1O)[C@@]1(C)CCC[C@@](C)(CN3C(=O)c4ccc(F)cc4C3=O)[C@@H]1CC2 [Compound 7]	>12	4.3 ± 0.1	>7	7.6 ± 0.2	> 50	>7	7 ± 0.6									
CC(C)c1cc2c(cc1O)[C@@]1(C)CCC[C@@](C)(CN3C(=O)c4ccccc4C3=O)[C@@H]1CC2 [Compound 5, 18-(phthalimid-2-yl)ferruginol]								6–43	6	17	9					IC50 (MCF07 [6]; [10]): 13 ± 0.6 µM; IC50 (SUM149 [7]; [11]): 4.4 ± 0.2 µM; IC50 (MDA-MB231 [8]; [12]): 8.2 ± 0.5 µM; IC50 (human BJ fibroblasts; [13]): 74.8 ± 5.3 µM
COc1ccc2c(c1)C(=O)N(C[C@]1(C)CCC[C@]3(C)c4cc(O)c(C(C)C)cc4CC[C@@H]13)C2=O [Compound 9, 12-Hydroxy-N,N-(4-methoxyphthaloyl)dehydroabietylamine]	14	4.3 ± 0.2	7	8.2 ± 0.8	58.9 ± 5.7	5	12 ± 1.2									
CC(C)c1cc2c(cc1O)[C@@]1(C)CCC[C@@](C)(CN)[C@@H]1CC2 [Compound 2, 12-hydroxydehydroabietylamine]									7	17	15	10 ± 1.5	4.4 ± 0.3	5.1 ± 0.6	75 ± 6.2	
CC(C)c1cc2c(c(O)c1O)[C@@]1(C)CCC[C@@](C)(CN3C(=O)c4ccccc4C3=O)[C@@H]1CC2 [Compound 12]								6–43	7	18	12	4.6 ± 0.6	1.8 ± 0.2	2.8 ± 0.2	32.5 ± 5	
CC(C)c1cc2c(cc1O)[C@@]1(C)CCC[C@@](C)(CN3C(=O)c4cccc(F)c4C3=O)[C@@H]1CC2 [Compound 6]	13	4.8 ± 0.2	7	9.4 ± 0.9	63.5 ± 6.3	12	5.4 ± 0.6									Morphological changes (early apoptosis) [9]: Membrane blebbing
COC(=O)[C@]1(C)CCC[C@]2(C)c3c(cc(C(C)C)c(O)c3O)CC[C@@H]12 [Compound 13]									≈1	≈1	6	> 50	> 50	9.4 ± 0.4	57.6 ± 3	Bioactivity across the tested cell lines (in words) ([5]; conclusions, Table 1 values of this compound ref 13): minimal activity
